# Assay results from patent US12622892B2, “Methods for treating endometriosis” (THE TEXAS A&M UNIVERSITY SYSTEM, priority 2020, dated 2026).
# Key:
# [1] = target: T1, NR4A1 (Homo sapiens, UniProt P22736); assay: Luciferase assay, NR4A1/NBRE-luc in ESECT-7 cells; assay type: cell-based; conditions: ESECT-7 cells transfected with NR4A1/NBRE-luc; 18 hr treatment; FIG. 2A
# T1 construct: expressed in transfected cells; host or cells: ESECT-7 patient-derived endometriotic cells
# Experimental: (§1) Luciferase assay: ESECT-7 and ESECT-40 cells were plated on 12-well plates in DMEM/F12 supplemented with 2.5% charcoal-stripped FBS. After overnight attachment and growth, various amounts of DNA [i.e., UASx5-Luc (500 ng), GAL4-NR4A1 (50 ng), NBREx3-Luc (800 ng), NurREx3-Luc (800 ng) and Flag-NR4A1 (80 ng)] were co-transfected into each well using Lipofectamine 2000 reagent (Invitrogen, Carlsbad, CA) according to the manufacturer's protocol. After 6 hr of transfection, cells were treated with plating medium (as above) containing either solvent (DMSO) or indicated concentrations of the compound for 18 hr. Cells were then lysed and cell extracts were used for chemiluminescence quantification of luciferase activity. Luciferase activity values were normalized against corresponding protein concentration values determined by Bradford assay. Both GAL4- and Flag-NR4A1 constructs contain full-length NR4A1 coding sequence and all the plasmids used in this study were previously described.
# [2] = target: T2, GAL4-NR4A1 (Homo sapiens, UniProt P22736); assay: Luciferase assay, GAL4-NR4A1 chimera/UAS-luc in ESECT-7 cells; assay type: cell-based; conditions: ESECT-7 cells transfected with GAL4-NR4A1 chimera/UAS-luc; 18 hr treatment; FIG. 2A
# T2 construct: GAL4 (fusion partner); expressed in transfected cells; host or cells: ESECT-7 patient-derived endometriotic cells
# Experimental: as §1
# [3] = test system: ESECT-40 cells; assay: Annexin V staining, ESECT-40; assay type: cell-based, human; conditions: 10 μM DIM-C-pPhOH-3-Cl-5-OCH3, 25 μM DIM-C-pPhOH, FIG. 3B
# Experimental: (§2) Annexin V staining: ESECT-7 and ESECT-40 cells were seeded in Nunc chambered cover glass followed by various drug treatments. The cells were then washed with ice-cold PBS, and 5 μL Alexa Fluor® 488 Annexin V with 100 μg/mL PI (as per the manufacturer's instructions) were added to the cells and incubated for 15 min, and the cells were observed using a Zeiss confocal fluorescence microscope.
# [4] = test system: NEM cells; assay: Cell growth, normal endometrial NEM cells; assay type: cell-based, human; conditions: 24 hr; 15-25 μM DIM-C-pPhOH, 5-10 μM DIM-C-pPhOH-3-Cl-5-OCH3; vs DMSO control; FIG. 4A
# Experimental: (§3) Primary human endometriotic stromal cells from endometriosis patients: Ovarian endometrioma were isolated from endometriosis patients in the proliferative phase following the IRB-approved protocol. Isolated ectopic lesions were digested with collagenase type 3 (300 μg/ml) and DNaseI (40 μg/ml) for 90 min at 37° C., and then tissues were filtered through 150, 100, and 40 μm sieves to isolate endometrial stromal cells. The collected endometrial stromal cells were cultured in DMEM/F12 with 10% FBS plus 1× antibiotic/antimycotic solution and then validated by flow cytometry with a CD90 antibody (a mesenchymal marker). Henceforth, we refer to the stromal cells as ectopic endometrium isolated ovarian endometrioma (ESECT). As the control, primary normal endometrial stromal cells isolated from the biopsy of the eutopic endometrium of normal women (NEM) in the proliferative phase. All cells were incubated at 37° C. in CO2 incubator in an atmosphere of humidified 5% CO2 and 95% air.
# (§4) Cell proliferation assay: Patient-derived endometriotic cells ESECT-7 and ESECT-40 were seeded into a 96-well plate, and the cells were then treated for 24 hr with either DMSO or different concentrations of DIM-C-pPhOH and DIM-C-pPhOH-3-Cl-5-OCH3. […] Dimethyl sulfoxide (DMSO) was added and incubated at […] for 10 min, and absorbance was measured at 570 nm.
# [5] = test system: ESECT-7 cells; assay: Quantitative real-time PCR of fibrosis markers, ESECT-7; assay type: cell-based, human; conditions: 24 hours, 20-25 μM DIM-C-pPhOH, 5-10 μM DIM-C-pPhOH-3-Cl-5-OCH3, vs DMSO control, FIG. 5C
# Experimental: Quantitative real-time PCR: Total RNA was isolated from cultured cells according to the manufacturer's instructions (Zymo Research, Irvine, CA). The concentration and purity of the RNA samples were determined using a nanodrop spectrophotometer. Total RNA was reverse transcribed using iTaq Universal SYBR Green One-Step Kit (Thermo Fisher Scientific, Grand Island, NY) using the manufacturer's protocol with the CFX384 real-time PCR System (Bio-Rad). The comparative cycle threshold method was used for relative quantitation of samples. Values for each gene were normalized to expression levels of TATA-binding protein. The sequences of the primers used for real-time PCR included the following: α-SMA, 5′-GGCCGAGATCTCACTGACTAC-3′ (sense, SEQ ID NO. 13) and 5′-TTC ATG GAT GCC AGC AGA-3′ (antisense, SEQ ID NO. 14); COL1A1, 5′-CAG CCG CTT CAC CTA CAG C-3′ (sense, SEQ ID NO. 15) and 5′-TTTTGTATTCAATCAGTGTCTTGCC-3′ (antisense, SEQ ID NO. 16); CTGF, 5′-TTGGCCCAGACCCAACTATG-3′(sense, SEQ ID NO. 17) and 5′-CAGGAGGCGTTGTCATTGGT-3′ (antisense, SEQ ID NO. 18); FN, 5′-GGG AGC CTC GAA GAG C-3′ (sense 19) and 5′-AACAAGTACAAACCAACGCA-3′ (antisense, SEQ ID NO. 20) and TATA-binding protein, 5′-GATCAGAACAACAGCCTGCC-3′ (sense, SEQ ID NO. 21) and 5′-TTCTGAATAGGCTGTGGGGT-3′ […].
# [6] = target: T3, NR4A1 (Mus musculus, UniProt P12813); conditions: C2C12 muscle cells; cited from earlier work
# T3 construct: endogenous in cells; host or cells: C2C12 muscle cells
# [7] = test system: ESECT-7 cells; assay: Cell proliferation assay (MTT), ESECT-7; assay type: cell-based, human; conditions: 24 hr; 5-10 μM DIM-C-pPhOH-3-Cl-5-OCH3, 15-25 μM DIM-C-pPhOH; FIG. 2C
# Experimental: as §3, §4
# [8] = test system: NEM cells; assay: Annexin V staining, NEM cells; assay type: cell-based, human; conditions: 25 μM DIM-C-pPhOH, 10 μM DIM-C-pPhOH-3-Cl-5-OCH3, vs DMSO control, FIG. 4C
# [9] = test system: IHEECs; assay: Expression of fibrosis markers in IHEECs; assay type: cell-based, human; conditions: 24 hours, vs control, FIG. 6B
# [10] = test system: ESECT-40 cells; assay: Cell proliferation assay (MTT), ESECT-40; assay type: cell-based, human; conditions: 24 hr; 5-10 μM DIM-C-pPhOH-3-Cl-5-OCH3, 15-25 μM DIM-C-pPhOH; FIG. 2C
# Experimental: as §3, §4
# [11] = test system: ESECT-7 cells; assay: Annexin V staining, ESECT-7; assay type: cell-based, human; conditions: 10 μM DIM-C-pPhOH-3-Cl-5-OCH3, 25 μM DIM-C-pPhOH, FIG. 3A
# Experimental: as §2
# [12] = test system: Ishikawa cells; assay: Expression of fibrosis markers in Ishikawa cells; assay type: cell-based; conditions: 24 hours, FIG. 6D
# [13] = test system: NEM cells; assay: Western blotting of growth promoting and proapoptotic gene products, NEM cells; assay type: cell-based, human
# [14] = test system: ESECT-7 cells; assay: α-SMA immunofluorescence, ESECT-7; assay type: cell-based, human; conditions: vs control, FIG. 5A
# Experimental: Immunofluorescence: ESECT-7 and ESECT-40 cells were seeded in Nunc chambered cover-glass followed by various drug treatments. The cells were fixed with 4% paraformaldehyde in PBS for 20 minutes at 37° C. Cells were then blocked and incubated overnight with primary α-SMA antibody in the buffer (5% bovine serum albumin in PBS) at 4° C., followed by incubation with Alexa Fluor conjugated secondary antibody at a dilution of 1:250 for 2 hours at room temperature. Finally, cells were observed using a Zeiss confocal fluorescence microscope.
# [15] = test system: NESC and EESC cells; conditions: Zeng et al. 2018; cited from earlier work
# T2 sequence (P22736 with tags, fused parts or gaps): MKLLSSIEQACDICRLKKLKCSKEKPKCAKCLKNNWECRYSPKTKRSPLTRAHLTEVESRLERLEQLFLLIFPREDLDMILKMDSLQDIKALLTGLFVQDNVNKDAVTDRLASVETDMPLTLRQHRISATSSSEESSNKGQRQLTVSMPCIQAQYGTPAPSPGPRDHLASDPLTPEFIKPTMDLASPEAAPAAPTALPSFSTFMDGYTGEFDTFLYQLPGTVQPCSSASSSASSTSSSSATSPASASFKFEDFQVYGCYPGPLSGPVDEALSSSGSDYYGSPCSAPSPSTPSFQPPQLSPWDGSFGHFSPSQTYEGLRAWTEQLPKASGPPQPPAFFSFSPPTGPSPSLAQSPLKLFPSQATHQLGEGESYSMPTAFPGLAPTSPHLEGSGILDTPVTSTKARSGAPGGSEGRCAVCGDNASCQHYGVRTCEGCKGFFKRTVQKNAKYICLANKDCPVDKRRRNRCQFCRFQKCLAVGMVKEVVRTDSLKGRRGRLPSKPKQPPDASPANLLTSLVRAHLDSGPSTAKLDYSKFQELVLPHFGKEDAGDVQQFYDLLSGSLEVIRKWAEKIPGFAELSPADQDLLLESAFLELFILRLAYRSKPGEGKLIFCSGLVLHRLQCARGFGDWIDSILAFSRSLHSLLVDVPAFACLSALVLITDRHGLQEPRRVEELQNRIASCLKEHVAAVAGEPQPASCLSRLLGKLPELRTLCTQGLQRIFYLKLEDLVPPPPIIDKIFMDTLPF
# T1 sequence (P22736 whole entry, species assumed): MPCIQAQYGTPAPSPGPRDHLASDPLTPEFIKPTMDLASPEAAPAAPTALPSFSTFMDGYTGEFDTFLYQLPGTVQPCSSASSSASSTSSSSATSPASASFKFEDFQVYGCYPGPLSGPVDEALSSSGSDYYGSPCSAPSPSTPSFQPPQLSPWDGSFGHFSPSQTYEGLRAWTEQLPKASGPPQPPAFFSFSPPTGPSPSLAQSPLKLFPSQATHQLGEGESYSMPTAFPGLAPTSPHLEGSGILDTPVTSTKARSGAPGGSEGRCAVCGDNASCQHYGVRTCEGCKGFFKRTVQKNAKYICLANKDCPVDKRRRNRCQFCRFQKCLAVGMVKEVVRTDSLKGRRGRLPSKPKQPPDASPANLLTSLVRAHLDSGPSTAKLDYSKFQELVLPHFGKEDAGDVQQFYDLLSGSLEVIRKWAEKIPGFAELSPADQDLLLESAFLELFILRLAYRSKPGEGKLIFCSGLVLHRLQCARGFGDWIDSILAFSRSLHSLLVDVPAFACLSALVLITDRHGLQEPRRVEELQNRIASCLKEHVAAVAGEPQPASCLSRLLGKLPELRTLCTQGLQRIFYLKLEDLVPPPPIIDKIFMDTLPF
# T3 sequence (P12813 whole entry): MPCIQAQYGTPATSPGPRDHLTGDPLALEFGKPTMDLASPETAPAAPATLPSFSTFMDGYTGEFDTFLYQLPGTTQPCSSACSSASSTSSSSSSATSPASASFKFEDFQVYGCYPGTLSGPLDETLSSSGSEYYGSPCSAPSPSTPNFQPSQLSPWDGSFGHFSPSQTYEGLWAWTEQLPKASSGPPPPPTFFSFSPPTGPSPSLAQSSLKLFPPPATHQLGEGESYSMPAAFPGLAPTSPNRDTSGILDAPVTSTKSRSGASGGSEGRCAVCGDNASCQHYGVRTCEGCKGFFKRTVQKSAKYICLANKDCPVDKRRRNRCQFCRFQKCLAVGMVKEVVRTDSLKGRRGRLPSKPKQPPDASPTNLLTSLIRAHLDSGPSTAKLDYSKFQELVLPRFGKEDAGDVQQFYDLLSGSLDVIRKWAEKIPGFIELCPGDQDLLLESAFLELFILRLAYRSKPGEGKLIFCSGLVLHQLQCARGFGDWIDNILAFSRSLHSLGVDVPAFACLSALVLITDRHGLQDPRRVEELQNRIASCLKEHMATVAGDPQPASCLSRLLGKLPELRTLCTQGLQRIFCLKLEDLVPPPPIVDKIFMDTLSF
smiles,measurement,setting,value
"Oc1c(Br)cc(C(c2c[nH]c3ccccc23)c2c[nH]c3ccccc23)cc1Br [4-OH-3,5-Br2]",intrinsic transcriptional activity of NR4A1,[1],inhibited the intrinsic transcriptional activity
same,intrinsic transcriptional activity of GAL4-NR4A1,[2],inhibited the intrinsic transcriptional activity
"Oc1ccc(C(c2c[nH]c3ccccc23)c2c[nH]c3ccccc23)cc1Cl [4-OH-3-Cl, 1,1-bis(3′-indolyl)-1-(3-chloro-4-hydroxyphenyl)methane]",intrinsic transcriptional activity of NR4A1,[1],inhibited the intrinsic transcriptional activity
same,intrinsic transcriptional activity of GAL4-NR4A1,[2],inhibited the intrinsic transcriptional activity
"Oc1ccc(C(c2c[nH]c3ccccc23)c2c[nH]c3ccccc23)cc1 [DIM-C-pPhOH, 1,1-bis(3′-indolyl)-1-(p-hydroxyphenyl)methane]",Annexin V staining (apoptosis),[3],induced apoptosis
same,growth of normal endometrial NEM cells,[4],did not suppress the growth
same,"mRNA levels of fibrosis markers (FN, Col1A1, CTGF)",[5],decreased mRNA levels
same,"NR4A1 agonist activity, induction of genes involved in glucose uptake",[6],worked as NR4A1 agonists
same,growth of ESECT-7 cells,[7],inhibited cell growth
same,Annexin V staining,[8],did not enhance
same,"expression of fibrosis markers (α-SMA, COL1A1, FN, CTGF)",[9],decreased expression of fibrosis markers
same,growth of ESECT-40 cells,[10],inhibited cell growth
same,Annexin V staining (apoptosis),[11],induced apoptosis
same,intrinsic transcriptional activity of NR4A1,[1],inhibited the intrinsic transcriptional activity
same,"expression of fibrosis markers (α-SMA, COL1A1, FN, CTGF)",[12],decreased expression of fibrosis markers
same,intrinsic transcriptional activity of GAL4-NR4A1,[2],inhibited the intrinsic transcriptional activity
same,levels of the cleaved form of PARP and Bax,"[13]; 25 μM DIM-C-pPhOH, 10 μM DIM-C-pPhOH-3-Cl-5-OCH3, vs DMSO control, FIG. 4D",did not enhance
same,cMyc and EGFR expression,"[13]; 15-25 μM DIM-C-pPhOH, 5-10 μM DIM-C-pPhOH-3-Cl-5-OCH3, vs DMSO control, FIG. 4B",did not decrease
same,expression of SMA levels,[14],decreased expression of SMA levels
CCCCCCCC(=O)c1c(O)cc(O)cc1CC(=O)OCC [cytosporone β],TGFβ-induced fibrosis,[15],inhibited TGFβ-induced fibrosis
